Source: patent US20230293539A1, “MLL1-WDR5 PROTEIN-PROTEIN INTERACTION INHIBITOR COMPOUNDS AND USES THEREOF” (HUYABIO International, LLC, priority 2022, published 2023)

Tests used:
[1] = Compound formulation stability assay; format: physicochemical; details: 10 mg/mL in 10% DMSO/10% solutol HS 15/80% water, 2-8° C.
Method: Compound formulation stability assay: Test articles were formulated in 10% DMSO/10% solutol HS 15/80% water and stored at 4° C. Formulated compounds were analyzed by a HPLC-UV method for actual concentrations and % remaining on Day 1, 4 and 7 after formulation to determine the stability of the formulated test article. The HPLC system was equipped with Shimadzu LC-20 high-performance liquid chromatograph, SIL-20AC auto sampler, LC-20AB pump and SPD-M20A detector. A Waters XBridge C18 (4.6*100 mm) column was applied for the separation. […]

Liver S9 stability assay [2] = format: in vitro ADME, rat
Method: (§1) Liver S9 stability assay: Test compounds (1 μM) and positive control were incubated with 5 mM GSH and liver S9 (1 mg protein/ml) from multiple species (including human, monkey, dog, rat and mouse) at 37° C. at 0, 10, 30, and 60 minutes in duplicate. After adding the stop solution, 100 μL of supernatant were analyzed by LC-MS/MS. The % remaining of test compound, T1/2 (min), and CLint (μL/min/mg) were calculated and were reported.

MV 411 cells = experiment: Cell Viability Assay (CellTiter-Glo); format: cell-based; details: Homo sapiens, MV4-11, 72 hours, read-out: IC50 (anti-proliferative activity against leukemia cells)
Method: Cell lines and maintenance: All cell lines (MV 411) used for in vitro and in vivo studies were supplied as part of Wuxi AppTech cell bank. Cell lines were maintained in a medium supplemented with 10% heat inactivated fetal bovine serum at 37° C., in an atmosphere of 5% CO2, in air. The tumor cells were routinely subcultured twice weekly. The cells growing in an exponential growth phase were used for the in vitro cell potency and in vivo efficacy studies.
EXAMPLE 1: Cell Viability Assay: For cell cytotoxicity assays, 2000 cells/well were plated in 384-well plates. Twenty four hours after plating, cells were treated with inhibitors at the indicated compound concentrations. On Day 3 (72 hours), cells were lysed with CellTiter-Glo® Luminescent Cell Viability Assay reagent (Promega) and luminescence was read using the EnVision Multi-plate reader. To calculate IC50, a dose-response curve is generated using a nonlinear regression model with a sigmoidal dose response. The formula of surviving rate is shown below. IC50 values were automatically generated by GraphPad Prism 8.0. See FIG. 1A and FIG. 1B and Tables 3 and 4.

Liver S9 stability assay [3] = format: in vitro ADME, human
Method: as §1

Mouse PK (oral) = format: in vivo, C57/B16 mice; details: for Cmax: plasma; for AUC(0-t) / half-life: C57/B16, plasma
Method: Mouse PK: Animals were dosed with a single intravenous bolus or oral gavage administration in naïve C57/B16 mice (Beijing Vital River Laboratory Animal Co., LTD). Blood samples were collected at the respective sampling time points. The quantification of compound concentrations in mouse or rat plasma was quantified using LC-MS/MS method. Plasma concentration versus time data was analyzed by non-compartmental mode approaches using the WinNonlin software program (version 6.3 or above, Pharsight). Pharmacokinetic parameters, including C0 (initial concentration after drug administration), […], Vdss (volume of distribution), Cmax (maximum peak concentration of the drug), Tmax (time required to reach Cmax) T1/2 (time required for drug concentration to decrease by 50% after administration), AUC0-last (area under the concentration-time curve from dosing time t=0 to the time of the last measured concentration), AUC0-inf (total drug exposure across time), MRT0-last (mean residence time from dosing time t=0 to the time of the last measured concentration), MRT0-inf f (mean residence time of total drug exposure), bioavailability (%) (the percentage (or the fraction F) of an administered drug dose that reaches the systemic circulation) for IV and PO groups were calculated. See Table 7 and FIGS. 6A, 6B, 6C and 6D.

Liver S9 stability assay [4] = format: in vitro ADME, mouse
Method: as §1

Liver S9 stability assay [5] = format: in vitro ADME, dog
Method: as §1

WDR5 = WDR5 (Homo sapiens, UniProt P61964); experiment: WDR5 TR-FRET Assay; format: binding; details: 5 nM WDR5 protein, 10 nM peptide, read-out: IC50 (MLL1-WDR5 PPI inhibitory activity)
Method: WDR5 TR-FRET Assay Procedure: Stock compounds were transferred to the assay plate by Echo Liquid Handler. Reactions were performed in the assay buffer (1×PBS, 300 mM NaCl, 0.5 mM TCEP, 0.1% CHAPS) containing 5 nM WDR5 protein, 10 nM peptide (Ac-ARTEVHLRKS-[Ahx-Ahx][C]-Alexa Fluor 488-NH2) and 0.25 nM Tb-anti His antibody (Tb-Ab) in 384-well white plate (PerkinElmer) with a final volume of 20 μl. Compounds were incubated with WDR5 protein for 30 min at room temperature. Plates were covered, protected from light and incubated for 60 min. at room temperature after adding the peptide and Tb-Ab. EnVision Multimode Plate Reader (PerkinElmer) was used for the TR-FRET assay with excitation wavelength at 340 nm and emission wavelength at 495 and 520 nm. The ratio of the 520/495 nm wavelengths were used to assess the degree of the FRET signal. IC50 was calculated by fitting the inhibition data using XLfit software to sigmoidal dose-response model.

[6] = WBS (whole blood stability) assay; format: in vitro ADME; details: for % Remaining after 60 min incubation: 2 μM, 37° C.
Method: WBS (whole blood stability) assay: The blood samples were collected freshly from multiple species including human, monkey, dog, rat and mouse. 2 μM of test compound and positive control were incubated with the whole blood at 37° C. at 0, 10, 30, 60, and 120 minutes in duplicate. After adding the stop solution, 200 μL of supernatant were analyzed by LC-MS/MS. The % remaining of test compound and T1/2 (min) were calculated and reported.

Compound: CCN(CC)C(=O)c1cn(-c2cc(NC(=O)c3cc(N)c(F)c(C)c3Cl)c(N3C[C@@H](C)N(C)[C@@H](C)C3)cc2F)nn1 [HYBI-082, 1-(5-(5-amino-2-chloro-4-fluoro-3-methylbenzamido)-2-fluoro-4-((3S,5R)-3,4,5-trimethylpiperazin-1-yl)phenyl)-N,N-diethyl-1H-1,2,3-triazole-4-carboxamide]
- Accuracy % (Day 0) ([1]; Day 0): 96.3%
- Formulation Appearance (Day 0) ([1]; Day 0): clear
- Remaining % (Day 0) ([1]; Day 0): 100%
- Accuracy % (Day 1) ([1]; Day 1): 96.0%
- Formulation Appearance (Day 1) ([1]; Day 1): clear
- Remaining % (Day 1) ([1]; Day 1): 100%
- Accuracy % (Day 4) ([1]; Day 4): 99.3%
- Formulation Appearance (Day 4) ([1]; Day 4): clear
- Remaining % (Day 4) ([1]; Day 4): 103%
- Accuracy % (Day 7) ([1]; Day 7): 98.6%
- Formulation Appearance (Day 7) ([1]; Day 7): clear
- Remaining % (Day 7) ([1]; Day 7): 102%
- half-life at 1 μM (Liver S9 stability assay [2]; Rat liver S9): > 2.42 h
- microsomal CLint at 1 μM (Liver S9 stability assay [2]; Rat liver S9): < 4.8 µL/min/mg
- % Remaining after 60 min incubation (Liver S9 stability assay [2]; Rat liver S9, 1 μM, 5 mM GSH, 37° C.): 98.3%
- IC50 (MV 411 cells): 7.68 µM
- half-life at 1 μM (Liver S9 stability assay [3]; Human liver S9): > 2.42 h
- microsomal CLint at 1 μM (Liver S9 stability assay [3]; Human liver S9): < 4.8 µL/min/mg
- % Remaining after 60 min incubation (Liver S9 stability assay [3]; Human liver S9, 1 μM, 5 mM GSH, 37° C.): 107%
- F (Mouse PK (oral); 10 mpk): 23.3%
- F (Mouse PK (oral); 30 mpk): 27.5%
- Cmax (Mouse PK (oral); C57/B16, 10 mg/kg, 10 mpk): 1.67 µM
- Cmax (Mouse PK (oral); C57/B16, 30 mg/kg, 30 mpk): 4.53 µM
- AUC(0-t) (Mouse PK (oral); 10 mg/kg, 10 mpk): 2.22 µM·h
- half-life (Mouse PK (oral); 10 mg/kg, 10 mpk): 0.8 h
- AUC(0-t) (Mouse PK (oral); 30 mg/kg, 30 mpk): 7.61 µM·h
- half-life (Mouse PK (oral); 30 mg/kg, 30 mpk): 2 h
- half-life at 1 μM (Liver S9 stability assay [4]; Mouse liver S9): > 2.42 h
- microsomal CLint at 1 μM (Liver S9 stability assay [4]; Mouse liver S9): < 4.8 µL/min/mg
- % Remaining after 60 min incubation (Liver S9 stability assay [4]; Mouse liver S9, 1 μM, 5 mM GSH, 37° C.): 87.7%
- half-life at 1 μM (Liver S9 stability assay [5]; Dog liver S9): > 2.42 h
- microsomal CLint at 1 μM (Liver S9 stability assay [5]; Dog liver S9): < 4.8 µL/min/mg
- % Remaining after 60 min incubation (Liver S9 stability assay [5]; Dog liver S9, 1 μM, 5 mM GSH, 37° C.): 87.3%
- IC50 (WDR5): 0.00532 µM
- half-life at 2 μM ([6]; Dog whole blood): > 2.41 h
- % Remaining after 60 min incubation ([6]; Dog whole blood): 90.6%
- half-life at 2 μM ([6]; Human whole blood): 11.9 h
- % Remaining after 60 min incubation ([6]; Human whole blood): 100%
- half-life at 2 μM ([6]; Mouse whole blood): > 2.41 h
- % Remaining after 60 min incubation ([6]; Mouse whole blood): 82.4%
- half-life at 2 μM ([6]; Rat whole blood): > 2.41 h
- % Remaining after 60 min incubation ([6]; Rat whole blood): 99.6%
